The target of test [1] is T1, Catalase (from bovine liver) (Bos taurus, UniProt P00432).
T1 construct: Catalase (from bovine liver); purchased Sigma-Aldrich, St. Louis, MO, USA; host or cells: bovine liver
T1 sequence (P00432 2-527 limits assumed): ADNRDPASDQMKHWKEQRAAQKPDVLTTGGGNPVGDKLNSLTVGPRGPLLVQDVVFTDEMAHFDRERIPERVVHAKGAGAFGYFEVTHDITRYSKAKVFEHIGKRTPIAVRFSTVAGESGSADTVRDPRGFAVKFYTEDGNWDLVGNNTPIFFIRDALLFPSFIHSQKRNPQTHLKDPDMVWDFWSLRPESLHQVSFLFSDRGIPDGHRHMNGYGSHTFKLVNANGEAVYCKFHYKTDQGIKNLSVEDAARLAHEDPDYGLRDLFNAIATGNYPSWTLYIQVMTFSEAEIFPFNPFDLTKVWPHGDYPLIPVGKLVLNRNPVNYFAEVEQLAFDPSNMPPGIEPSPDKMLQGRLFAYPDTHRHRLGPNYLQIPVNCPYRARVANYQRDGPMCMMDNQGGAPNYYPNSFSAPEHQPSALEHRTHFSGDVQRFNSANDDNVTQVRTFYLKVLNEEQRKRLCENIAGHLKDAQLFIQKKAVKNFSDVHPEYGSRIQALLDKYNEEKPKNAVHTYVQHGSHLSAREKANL
In words: Fluorimetric titration: quenching of catalase fluorescence by catechins. To be noted: double logarithmic plot, 25°C; for Kd: pH 7.4, λex 280 nm, read-out: binding constant K with catalase (fluorimetric) (converted). The format is binding. The procedure:
Fluorescence spectra were recorded using a Perkin Elmer fluorescence spectrophotometer (LS-55) equipped with 150 W Xenon flash lamp and using fluorescence-free quartz cell of 1 cm path length. The widths of excitation and emission slits were set to 5 nm, and scan speed (100 nm/min), excitation voltage were kept constant for each data set. Quantitative analysis of the potential interaction between catechins and catalase was performed by the fluorimetric titration technique. Briefly, solution of catalase (5×10^−7 M, as calculated using molar extinction coefficient of 3.24×10^5 M^−1 s^−1 at 405 nm for catalase) in 50 mM phosphate buffer of pH 7.4 was titrated in cuvette by successive additions of individual catechin solution aliquots from a stock of 5×10^−7 M. Fluorescence emission spectra were recorded in the wavelength range of 290–450 nm upon excitation at 280 nm when catalase samples were titrated with catechins. All experiments were carried out at room temperature. Fluorescence intensity was measured at 340 nm of protein emission spectra. Fluorescence spectra of individual catechins in buffer were recorded as blanks under the same experimental conditions and subtracted from the corresponding sample to correct the fluorescence background.
The binding constants and the number of binding sites involved were calculated according to the relation: log (F0–F)/F = log K+n log [Q], where K is the binding constant and n is the number of binding sites, F0 is the fluorescence intensity of free catalase, F is the consecutive fluorescence on addition of catechins, and [Q] is the concentration of the quencher (here catechins). A plot of log (F0– F)/F and log [Q] was used to determine the values of K and n from the intercept and the slope respectively (Figure 3 A–D).

Test [2] addresses T1, Catalase (from bovine liver). In words: Isothermal titration calorimetry of catechins binding to catalase. The following applies: 25°C; for ΔG / ΔH / ΔS: ITC; for ΔG: calculated from the average values of ΔH; for ΔH / ΔS: directly extracted from the experiment; for Kd: one-site binding model, from ΔG = −RT ln K, read-out: binding constant with catalase (ITC) (converted). On the procedure:
The energetics of the binding of catechins to catalase was studied by ITC using a MicroCal ITC200, (Northampton, MA, USA). All solutions were degassed under vacuum (140 mbar, 10 min) on the MicroCal’s Thermovac unit to eliminate air bubble formation inside the calorimeter cell. Briefly, the calorimeter syringe was filled with a concentrated solution of catechins (10 µM each). Successive injections of this solution into 1 µM solution of catalase in the calorimeter cell were effected from the rotating syringe with constant stirring of the solution. The titration and analysis were performed through Origin 7 software provided with the unit.
ITC directly measures the heat released during a chemical reaction. ITC can reveal the stoichiometry, enthalpy free energy, and entropy changes that occur over the course of a reaction, [46]. Data obtained from the titration are presented by the series of peaks corresponding to each injection. Usually, this representation is transformed into the apparent heat change between two injections as a function of the titrant ratio by means of integration of power differential with regard to time. ITC has been used mainly to quantify interactions in various biochemical systems [47]–[49]. ITC has been used in the present study to determine binding affinity and other thermodynamic parameters of catechins-catalase interaction. Representative isothermal calorimetric heat profiles for the binding of catechins-catalase interaction, at physiological pH and 25°C are shown in Figure 4 (A–D). The data were corrected for the heat of dilution of catechins, which was determined in a separate set of experiments under identical conditions. The titration and analysis were performed using one-site binding model through Origin 7 software provided with the unit. From Figure 4 it is observed that the titration of catalase with all the four catechins yield negative heat deflections. EC, EGC, ECG, and EGCG bind to catalase with binding constants 2.13×10^5, 1.92×10^5, 6.36×10^5, and 8.19×10^5 M^−1, respectively, as determined by the following equation: ΔG = −RT ln K, where ΔG is the free energy, R and T are the gas constant and temperature, respectively, K is the binding constant.

Test [3] has the same target. In words: Inhibition of pure catalase activity (cell free), H2O2 decay at 240 nm. In kind it is biochemical. To be noted: pure catalase, 50 µM each, 1 h incubation. On the procedure: Absorption spectrophotometer (Varian, CARY 100 Bio, USA) was used to determine pure catalase activity (cell free). Briefly, 900 µl of H2O2 (0.036%) was taken in quartz cell of 1 cm path length and its absorbance was recorded at 240 nm. To the solution, 100 µl of catalase (50 U/ml) was added and the decrease in absorbance was recorded at 10 s interval. This experiment was performed in presence 50 µM each of four catechins and 3-AT separately to evaluate the inhibitory effect of catechins on catalase activity, after 1 h incubation.
On addition of catechins, a decrease in rate of H2O2 degradation i.e. a decrease in pure catalase activity was observed which is represented in Figure 6A. Catechins with galloyl moiety (ECG and EGCG) reduced catalase activity more than its non-gallated counterparts i.e. EGC and EC. However, Inhibition by EGCG is the closest to inhibition by known catalase inhibitor 3-AT.

For test [4], the target named is human dihydrofolate reductase (DHFR). On the set-up: method as in PMID 20054477. To be noted: fluorescence quenching; cited from earlier work.
In test [5] the target is T1, Catalase (from bovine liver). The test can be described thus: Circular dichroism: catechin-induced conformational change in catalase. To be noted: catalase 1 µM, ligands 3 µM each, 25°C. On the procedure: All the CD experiments were carried out on a Jasco-815 automatic spectropolarimeter (Jasco International Co., Ltd. Hachioji, Japan) equipped with a peltier cuvette holder and temperature controller PFD425 L/15. The catalase concentration and path length of the cuvette used were 1 µM and 0.1 cm, respectively. The instrument parameters were set at scanning speed of 50 nm/min, bandwidth of 1.0 nm and sensitivity of 100 milli degree. The molar ellipticity values are expressed in terms of mean residue molar ellipticity, in units of deg. cm^2 dmol^−1.
CD allows investigation of the conformational changes that occur in a protein upon ligand binding. The CD spectra of catalase at pH 7.4 in the absence and in the presence of EGC, EC, ECG, EGCG, and 3-AT at 25°C are represented in Figure 5 (a – f). […] The negative band at 208 and 220 nm decreased in intensity with the addition of various catechins, which is indicative of the loss of α-helicity upon interaction. […] From the CD spectra, the effect of catechins on the secondary structure of catalase is in the following order: 3-AT>EGCG>ECG>EC>EGC.

For the next test, the system named is K562 cells. The test can be described thus: MTT cell viability assay. The format is cell-based. To be noted: Homo sapiens. On the procedure:
Cell viability of K562 cells was quantified by MTT based colorimetric assay as described elsewhere. Briefly, cells were rinsed with PBS and 0.5 mg/ml MTT was added into each sample. The mixture was incubated at 37°C for an additional 3 h. At the end of incubation period, the medium containing MTT was removed and the pellet was dissolved in 200 µl DMSO. Absorbance was measured at a wavelength of 570 nm. Cell viability was expressed as a percentage of the control culture.
The concentration (IC50) at which the K562 cell survivability was reduced to 50% was calculated for EGCG and 3-AT by MTT based cell viability assay.
Background: Formazan colour is commonly taken as a measure of viable cells.

In another test the test system is catalase. The following applies: cited from earlier work.

As to `O=C(OC1Cc2c(O)cc(O)cc2OC1c1ccc(O)c(O)c1)c1cc(O)c(O)c(O)c1` (single isomer, unassigned; (-)) [ECG, (−)-epicatechin gallate], in test [1], the “number of binding sites n” value is recorded as “single binding site” and the Kd is 0.602 µM. Besides, in test [2], the ΔG was -7.8 kcal/mol, the ΔH was -756 ± 30.2 kcal/mol, the ΔS is reported as −2.60×10^3 cal/mol/K and the Kd was 1.57 µM. The “order of inhibition of catalase activity” value in test [3] is reported as 3-AT>EGCG>ECG>EC>EGC. The Kd in test [4] is 1.8 µM. For the same molecule, in test [5], the “order of effect on the secondary structure of catalase (loss of α-helicity)” value (shortened to “order of effect … (loss of α-helicity)”) is 3-AT>EGCG>ECG>EC>EGC.
For `Oc1cc(O)c2c(c1)OC(c1cc(O)c(O)c(O)c1)C(O)C2` (single isomer, unassigned; (-)) [EGC, (−)-epigallocatechin], in test [1], the “number of binding sites n” value was “single binding site” and the Kd is 12.7 µM. Also, in test [2], the ΔG was -7.1 kcal/mol, the ΔH was -3.2e+06 ± 106000 kcal/mol, the ΔS is −1.07×10^7 cal/mol/K and the Kd was 5.21 µM. The “order of inhibition of catalase activity” value in test [3] was 3-AT>EGCG>ECG>EC>EGC. Also, in test [4], the “binding to DHFR” value was “did not bind”. The “order of effect … (loss of α-helicity)” value in test [5] is on record as 3-AT>EGCG>ECG>EC>EGC.
In the case of `Nc1nc[nH]n1` [3-AT, 3-amino-1,2,4-triazole, reference compound], the 50% inhibitory concentration (IC50) (as a rule, the concentration that gives 50% inhibition) with K562 cells was determined as 10.5 µM. The “order of inhibition of catalase activity” value in test [3] is given as 3-AT>EGCG>ECG>EC>EGC. Further, the “order of effect … (loss of α-helicity)” value in test [5] was 3-AT>EGCG>ECG>EC>EGC.
For `Oc1cc(O)c2c(c1)O[C@H](c1ccc(O)c(O)c1)[C@H](O)C2` [EC, (−)-epicatechin], in test [1], the “number of binding sites n” value is recorded as “single binding site” and the Kd is 9.26 µM. Moreover, in test [2], the ΔG was -7.17 kcal/mol, the ΔS is on record as −2.40×10^7 cal/mol/K and the Kd was 4.69 µM. The “order of inhibition of catalase activity” value in test [3] is given as 3-AT>EGCG>ECG>EC>EGC. In addition, the “binding to DHFR” value in test [4] is “did not bind”. For the same molecule, in test [5], the “order of effect … (loss of α-helicity)” value is given as 3-AT>EGCG>ECG>EC>EGC.
In the case of microcystin, in the test on catalase, the “binding constant of catalase-microcystin complex” value is 61200 M⁻¹.

Values taken from paper PMC4099323, “Inhibition of Catalase by Tea Catechins in Free and Cellular State: A Biophysical Approach” (PLoS ONE, 2014).
